The record followed here is ChEMBL document CHEMBL5465560, “Selectivity Literature for EUbOPEN Chemogenomic Library” (2024).

Assay [1] deals with Fibroblast growth factor receptor 2 (Homo sapiens) (UniProt P21802). The experiment in a line: Selectivity interaction (Kinase panel (DSF assay)) EUB0001558a FGFR2. A general note: In DSF a fluorescence change marks the thermal transition of the protein.
For assay [2], the target named is Serine/threonine-protein kinase Nek7 (Homo sapiens) (UniProt Q8TDX7). Kind of assay: Selectivity interaction (Kinase panel (DSF assay)) EUB0001558a NEK7.
Assay [3] addresses High affinity nerve growth factor receptor (Homo sapiens, UniProt P04629). Kind of assay: Selectivity interaction (Ambit KINOMEscan and KiNATiv profiling in Jurkat cells) EUB0000090b NTRK1. The format is cell-based. Conditions: at 1 µM.
Assay [4] has as its target Serine/threonine-protein kinase PAK 6 (Homo sapiens) (UniProt Q9NQU5). The experiment in a line: Selectivity interaction (Ambit KINOMEscan and KiNATiv profiling in Jurkat cells) EUB0000090b PAK6. Conditions: at 1 µM. The format is cell-based.
The target in assay [5] is Activin receptor type-2B (Homo sapiens) (UniProt Q13705). The experiment in a line: Selectivity interaction (KinomeScan (DiscoverX)) EUB0000092b ACVR2B. Conditions: at 10 µM.
For assay [6], the target named is Mitogen-activated protein kinase kinase kinase 4 (Homo sapiens) (UniProt Q9Y6R4). Kind of assay: Selectivity interaction (KinomeScan (DiscoverX)) EUB0001049a MAP3K4. Conditions: at 1 µM.
Assay [7] has as its target Serine/threonine-protein kinase WNK3 (Homo sapiens) (UniProt Q9BYP7). Kind of assay: Selectivity interaction (KinomeScan (DiscoverX)) EUB0000695a WNK3. Conditions: at 100 nM.
Assay [8] concerns the target Small conductance calcium-activated potassium channel protein 1 (Homo sapiens) (UniProt Q92952). Kind of assay: Selectivity interaction (Eurofins CEREP Diversity Profile (receptors and ion channels)) EUB0000279b KCNN1. To be noted: at 10 µM.
For assay [9], the system named is Tyrosine-protein kinase ABL1 (Homo sapiens), P00519 [E255K]. Kind of assay: (§1) Selectivity interaction (KinomeScan (DiscoverX)) EUB0000045b ABL1.
In assay [10] the test system is Tyrosine-protein kinase ABL1 (Homo sapiens), P00519 [F317I]. The description is as §1.
The test system of assay [11] is Tyrosine-protein kinase ABL1 (Homo sapiens), P00519 [F317L]. Described as §1.
Assay [12] concerns Tyrosine-protein kinase ABL1 (Homo sapiens), P00519 [H396P]. The assay is described as §1.
Assay [13] has as its system Tyrosine-protein kinase ABL1 (Homo sapiens), P00519 [M351T]. Described as §1.
Assay [14] has as its system Tyrosine-protein kinase ABL1 (Homo sapiens), P00519 [Q252H]. The description is as §1.
In assay [15] the test system is Tyrosine-protein kinase ABL1 (Homo sapiens), P00519 [T315I]. The assay is described as §1.
Assay [16] relates to Tyrosine-protein kinase ABL1 (Homo sapiens), P00519 [Y253F]. The description is as §1.
The target in assay [17] is Tyrosine-protein kinase ABL1 (Homo sapiens, UniProt P00519). The assay is described as §1.
Assay [18] has as its target Serine/threonine-protein kinase MRCK alpha (Homo sapiens) (UniProt Q5VT25). Kind of assay: Selectivity interaction (KinomeScan (DiscoverX)) EUB0000666a CDC42BPA. To be noted: at 10 µM.
The target of assay [19] is T1, Mitogen-activated protein kinase kinase kinase 2 (Homo sapiens) (UniProt Q9Y2U5).
T1 sequence (whole entry): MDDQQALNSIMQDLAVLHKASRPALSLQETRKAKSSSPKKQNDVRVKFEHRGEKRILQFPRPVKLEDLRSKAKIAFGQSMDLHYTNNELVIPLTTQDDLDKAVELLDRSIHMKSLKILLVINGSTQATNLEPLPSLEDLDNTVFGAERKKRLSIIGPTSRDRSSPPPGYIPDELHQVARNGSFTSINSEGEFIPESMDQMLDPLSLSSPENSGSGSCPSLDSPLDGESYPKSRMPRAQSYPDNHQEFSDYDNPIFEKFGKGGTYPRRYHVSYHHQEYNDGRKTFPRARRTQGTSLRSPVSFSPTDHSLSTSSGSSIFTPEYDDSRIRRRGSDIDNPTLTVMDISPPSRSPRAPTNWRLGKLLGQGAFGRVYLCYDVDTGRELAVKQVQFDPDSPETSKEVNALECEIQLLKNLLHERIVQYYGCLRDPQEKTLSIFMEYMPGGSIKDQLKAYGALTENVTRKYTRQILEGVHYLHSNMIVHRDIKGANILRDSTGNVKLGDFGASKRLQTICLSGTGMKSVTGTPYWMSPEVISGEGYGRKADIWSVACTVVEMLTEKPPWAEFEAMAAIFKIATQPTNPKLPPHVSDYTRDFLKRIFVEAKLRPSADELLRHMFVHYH
The experiment in a line: Selectivity interaction (ActivX KiNativ screen (kinase selectivity in THP-1 cell lysates)) EUB0000639a MAP3K2. The format is subcellular. To be noted: lysate.

The target in assay [20] is Mitogen-activated protein kinase 9 (Homo sapiens, UniProt P45984). Kind of assay: Selectivity interaction (Kinase panel (DSF assay)) EUB0001559a MAPK9.
Assay [21] concerns the target T2, Serine/threonine-protein kinase 3 (Homo sapiens) (UniProt Q13188).
T2 sequence (whole entry): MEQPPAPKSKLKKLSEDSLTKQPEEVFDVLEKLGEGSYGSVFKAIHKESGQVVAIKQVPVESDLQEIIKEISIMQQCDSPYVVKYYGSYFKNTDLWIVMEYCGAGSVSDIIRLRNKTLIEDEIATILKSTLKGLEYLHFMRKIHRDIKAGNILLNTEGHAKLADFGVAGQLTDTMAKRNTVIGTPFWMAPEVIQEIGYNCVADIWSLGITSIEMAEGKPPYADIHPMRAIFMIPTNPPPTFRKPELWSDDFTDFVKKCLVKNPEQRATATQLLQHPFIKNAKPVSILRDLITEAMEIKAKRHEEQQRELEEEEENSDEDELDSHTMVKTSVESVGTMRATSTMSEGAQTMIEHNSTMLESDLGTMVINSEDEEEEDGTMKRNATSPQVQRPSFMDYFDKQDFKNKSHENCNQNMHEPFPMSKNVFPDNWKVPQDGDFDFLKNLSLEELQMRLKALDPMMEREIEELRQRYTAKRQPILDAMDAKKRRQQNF
The experiment in a line: Selectivity interaction (Kinase panel (DSF assay)) EUB0001559a STK3.

Fibroblast growth factor receptor 2 (Homo sapiens), sequence (P21802 22-821 limits assumed): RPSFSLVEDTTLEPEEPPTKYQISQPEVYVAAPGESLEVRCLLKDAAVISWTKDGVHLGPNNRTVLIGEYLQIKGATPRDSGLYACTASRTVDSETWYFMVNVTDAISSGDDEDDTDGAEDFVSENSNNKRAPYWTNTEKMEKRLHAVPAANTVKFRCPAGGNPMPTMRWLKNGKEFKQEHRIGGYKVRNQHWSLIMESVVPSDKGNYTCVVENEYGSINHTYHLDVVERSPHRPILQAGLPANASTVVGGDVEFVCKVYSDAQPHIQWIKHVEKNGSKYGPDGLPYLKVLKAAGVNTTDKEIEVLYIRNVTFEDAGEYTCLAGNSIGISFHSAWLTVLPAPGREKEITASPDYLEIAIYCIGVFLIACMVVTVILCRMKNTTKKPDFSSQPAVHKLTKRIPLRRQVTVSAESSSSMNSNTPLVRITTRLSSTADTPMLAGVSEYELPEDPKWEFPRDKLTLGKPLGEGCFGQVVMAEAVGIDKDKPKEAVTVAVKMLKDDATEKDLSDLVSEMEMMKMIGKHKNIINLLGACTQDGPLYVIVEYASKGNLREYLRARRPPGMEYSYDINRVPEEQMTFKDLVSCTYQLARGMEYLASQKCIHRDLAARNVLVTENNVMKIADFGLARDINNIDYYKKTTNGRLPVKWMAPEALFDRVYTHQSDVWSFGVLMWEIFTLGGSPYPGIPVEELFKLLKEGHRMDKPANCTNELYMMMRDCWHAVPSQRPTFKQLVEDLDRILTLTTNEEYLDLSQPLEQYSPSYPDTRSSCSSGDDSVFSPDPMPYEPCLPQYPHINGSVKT
High affinity nerve growth factor receptor, sequence (P04629 33-796 limits assumed): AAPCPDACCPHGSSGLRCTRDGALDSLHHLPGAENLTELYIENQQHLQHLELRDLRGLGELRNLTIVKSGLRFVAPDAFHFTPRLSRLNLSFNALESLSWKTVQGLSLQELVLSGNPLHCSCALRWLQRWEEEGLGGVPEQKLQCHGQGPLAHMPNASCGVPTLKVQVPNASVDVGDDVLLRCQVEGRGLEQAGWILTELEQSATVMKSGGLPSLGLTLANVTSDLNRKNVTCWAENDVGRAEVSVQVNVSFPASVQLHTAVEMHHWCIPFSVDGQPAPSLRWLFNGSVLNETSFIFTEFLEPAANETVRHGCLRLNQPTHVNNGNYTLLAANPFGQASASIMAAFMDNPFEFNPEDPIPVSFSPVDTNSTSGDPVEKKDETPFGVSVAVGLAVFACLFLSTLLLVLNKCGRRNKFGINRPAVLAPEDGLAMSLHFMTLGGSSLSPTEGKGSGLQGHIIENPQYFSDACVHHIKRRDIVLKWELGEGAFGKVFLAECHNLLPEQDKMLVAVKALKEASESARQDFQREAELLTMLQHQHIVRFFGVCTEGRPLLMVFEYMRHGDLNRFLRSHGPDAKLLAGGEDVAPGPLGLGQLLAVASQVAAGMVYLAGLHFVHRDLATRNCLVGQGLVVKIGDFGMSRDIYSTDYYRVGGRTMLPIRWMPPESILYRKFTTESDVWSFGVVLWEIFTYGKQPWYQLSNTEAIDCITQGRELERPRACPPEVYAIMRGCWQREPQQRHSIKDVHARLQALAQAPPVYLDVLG
Mitogen-activated protein kinase kinase kinase 4 (Homo sapiens), sequence (Q9Y6R4 whole entry): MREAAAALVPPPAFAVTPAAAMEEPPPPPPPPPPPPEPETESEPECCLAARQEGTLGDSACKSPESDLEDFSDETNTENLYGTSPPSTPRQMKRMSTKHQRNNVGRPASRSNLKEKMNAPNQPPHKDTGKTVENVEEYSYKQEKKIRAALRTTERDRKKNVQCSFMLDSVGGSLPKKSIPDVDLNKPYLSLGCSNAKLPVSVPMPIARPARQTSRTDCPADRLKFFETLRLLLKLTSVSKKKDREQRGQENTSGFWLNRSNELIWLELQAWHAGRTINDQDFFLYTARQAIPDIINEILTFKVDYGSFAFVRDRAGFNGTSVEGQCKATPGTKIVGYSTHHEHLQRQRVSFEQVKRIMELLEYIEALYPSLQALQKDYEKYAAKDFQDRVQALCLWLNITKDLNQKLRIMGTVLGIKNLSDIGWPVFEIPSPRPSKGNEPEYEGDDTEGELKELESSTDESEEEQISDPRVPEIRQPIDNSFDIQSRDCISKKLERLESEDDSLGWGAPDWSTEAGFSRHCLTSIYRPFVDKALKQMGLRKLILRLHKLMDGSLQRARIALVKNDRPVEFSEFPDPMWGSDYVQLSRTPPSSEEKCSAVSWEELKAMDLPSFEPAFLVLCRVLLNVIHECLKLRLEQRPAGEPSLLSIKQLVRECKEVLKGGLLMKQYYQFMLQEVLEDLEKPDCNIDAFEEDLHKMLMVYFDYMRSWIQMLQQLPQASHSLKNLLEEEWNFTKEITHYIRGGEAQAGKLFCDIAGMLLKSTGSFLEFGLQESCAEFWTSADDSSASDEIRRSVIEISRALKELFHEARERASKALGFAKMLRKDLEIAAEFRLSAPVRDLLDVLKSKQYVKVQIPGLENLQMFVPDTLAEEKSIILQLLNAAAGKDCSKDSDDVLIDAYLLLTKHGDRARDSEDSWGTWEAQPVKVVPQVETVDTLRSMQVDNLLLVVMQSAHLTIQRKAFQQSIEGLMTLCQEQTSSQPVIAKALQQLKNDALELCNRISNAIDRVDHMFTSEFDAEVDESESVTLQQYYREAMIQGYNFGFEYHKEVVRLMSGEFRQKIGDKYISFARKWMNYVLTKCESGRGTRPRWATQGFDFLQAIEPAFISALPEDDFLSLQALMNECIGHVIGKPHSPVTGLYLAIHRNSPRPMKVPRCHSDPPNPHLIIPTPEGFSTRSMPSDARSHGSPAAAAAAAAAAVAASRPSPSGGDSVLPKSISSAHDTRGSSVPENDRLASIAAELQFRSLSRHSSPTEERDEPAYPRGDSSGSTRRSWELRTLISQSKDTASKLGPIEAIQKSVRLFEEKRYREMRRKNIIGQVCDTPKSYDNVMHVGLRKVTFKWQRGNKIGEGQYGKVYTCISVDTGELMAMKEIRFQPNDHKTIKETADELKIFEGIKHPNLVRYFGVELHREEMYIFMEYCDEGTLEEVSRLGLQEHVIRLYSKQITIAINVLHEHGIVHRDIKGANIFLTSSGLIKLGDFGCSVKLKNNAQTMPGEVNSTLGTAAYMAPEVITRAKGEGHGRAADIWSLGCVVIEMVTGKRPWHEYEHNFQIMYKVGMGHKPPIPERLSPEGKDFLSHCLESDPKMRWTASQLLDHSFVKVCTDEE
Serine/threonine-protein kinase PAK 6 (Homo sapiens), sequence (Q9NQU5 whole entry, looked up): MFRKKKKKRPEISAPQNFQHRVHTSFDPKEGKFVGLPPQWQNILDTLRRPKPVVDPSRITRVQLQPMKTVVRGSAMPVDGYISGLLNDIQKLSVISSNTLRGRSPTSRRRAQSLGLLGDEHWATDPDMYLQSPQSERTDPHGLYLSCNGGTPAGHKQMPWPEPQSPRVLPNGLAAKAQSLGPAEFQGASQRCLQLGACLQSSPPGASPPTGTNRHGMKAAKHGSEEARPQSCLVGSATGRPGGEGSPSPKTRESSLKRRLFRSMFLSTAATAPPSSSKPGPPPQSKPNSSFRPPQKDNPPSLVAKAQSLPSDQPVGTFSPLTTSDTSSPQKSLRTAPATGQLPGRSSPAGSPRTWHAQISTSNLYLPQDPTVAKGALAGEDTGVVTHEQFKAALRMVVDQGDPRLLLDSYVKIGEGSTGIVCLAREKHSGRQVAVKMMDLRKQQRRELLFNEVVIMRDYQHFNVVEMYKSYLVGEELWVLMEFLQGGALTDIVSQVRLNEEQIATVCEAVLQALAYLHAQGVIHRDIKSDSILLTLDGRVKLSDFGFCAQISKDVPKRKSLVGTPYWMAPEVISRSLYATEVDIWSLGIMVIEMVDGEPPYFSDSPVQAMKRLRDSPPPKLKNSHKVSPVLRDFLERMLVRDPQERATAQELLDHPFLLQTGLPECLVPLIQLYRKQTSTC
Serine/threonine-protein kinase Nek7 (Homo sapiens), sequence (Q8TDX7 whole entry, looked up): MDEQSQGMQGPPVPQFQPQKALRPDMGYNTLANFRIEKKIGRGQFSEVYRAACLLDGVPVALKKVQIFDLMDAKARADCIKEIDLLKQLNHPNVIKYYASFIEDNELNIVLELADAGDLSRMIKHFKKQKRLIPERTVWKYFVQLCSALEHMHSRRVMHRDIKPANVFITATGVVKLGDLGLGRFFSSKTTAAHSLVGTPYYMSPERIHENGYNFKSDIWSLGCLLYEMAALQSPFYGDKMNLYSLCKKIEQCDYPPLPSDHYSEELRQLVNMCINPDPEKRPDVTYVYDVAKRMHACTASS
Small conductance calcium-activated potassium channel protein 1 (Homo sapiens), sequence (Q92952 whole entry): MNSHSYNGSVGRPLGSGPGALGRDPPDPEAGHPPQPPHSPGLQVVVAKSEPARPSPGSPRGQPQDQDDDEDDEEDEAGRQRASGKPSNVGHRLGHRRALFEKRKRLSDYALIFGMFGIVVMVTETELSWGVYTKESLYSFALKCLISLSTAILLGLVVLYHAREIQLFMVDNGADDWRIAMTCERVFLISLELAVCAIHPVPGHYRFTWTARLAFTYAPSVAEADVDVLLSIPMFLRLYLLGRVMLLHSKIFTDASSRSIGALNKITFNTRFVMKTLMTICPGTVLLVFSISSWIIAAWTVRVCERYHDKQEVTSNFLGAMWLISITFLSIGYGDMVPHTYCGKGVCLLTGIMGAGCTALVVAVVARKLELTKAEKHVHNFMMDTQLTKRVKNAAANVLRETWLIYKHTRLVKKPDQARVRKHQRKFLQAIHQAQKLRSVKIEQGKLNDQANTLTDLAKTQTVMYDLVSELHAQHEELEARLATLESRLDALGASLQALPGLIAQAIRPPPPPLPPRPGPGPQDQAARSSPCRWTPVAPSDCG

Take `CC(C)(O)[C@H](F)CN1Cc2cc(NC(=O)c3cnn4cccnc34)c(N3CCOCC3)cc2C1=O`: the figures for the dTM in assay [1] and in assay [2] were 1 K and -0.2 K, respectively.

`CN(C)C/C=C/C(=O)Nc1ccc(C(=O)N2CCCC(Nc3ncc(Cl)c(-c4c[nH]c5ccccc45)n3)C2)cc1` (centres undefined): the figures for the % of control in assay [3] and in assay [4] were 78% and 33%, respectively.

Turning to `CCC(=O)N1CCN(c2ccc(-n3c(=O)ccc4cnc5ccc(-c6cnc7ccccc7c6)cc5c43)cc2C(F)(F)F)CC1`, the % of control in [5] stood at 42%.

For the compound `COc1cc(Nc2nc(C)cc(-c3cnn4nc(OC)ccc34)n2)cc(C(F)(F)F)c1`, the % of control in assay [6] was 87%.

Turning to `Cc1cc(F)c(C(=O)Nc2cccc(-c3nncn3C(C)C)n2)cc1-n1cnc(C2CC2)c1`, the % of control in [7] is 100%.

For the compound `CC(=O)c1cc(-c2ccccc2OCC2CC2)c2ncccn12`, in assay [8], the % of control stood at 110%.

As to `C=CC(=O)Nc1cc(-n2c(=O)ccc3cnc4ccc(-c5ccc(NS(C)(=O)=O)cc5)cc4c32)ccc1C`, the % of control was 63% in assay [9] (at 1 µM); 77% in assay [9] (at 10 µM); 100% in assay [10] (at 1 µM); 100% in assay [10] (at 10 µM); 100% in assay [11] (at 1 µM); 100% in assay [11] (at 10 µM). Further, the % of control in assay [12] (at 1 µM) amounted to 100%; in assay [12] (at 10 µM), 100%; in [13] (at 1 µM), 90%; in [13] (at 10 µM), 86%; in assay [14] (at 1 µM), 100%; in assay [14] (at 10 µM), 100%. Further, the % of control in assay [15] (at 1 µM) came to 100%; in assay [15] (at 10 µM), 100%; in assay [16] (at 1 µM), 100%; in assay [16] (at 10 µM) it was 76%; in assay [17] (at 1 µM), 100%; in assay [17] (at 10 µM) it was 73%.

Consider `O=C(NOC[C@H](O)CO)c1ccc(F)c(F)c1Nc1ccc(I)cc1F`, for which the % of control in assay [18] stood at 100%.

In the case of `CC[C@@H]1[C@H](F)C(=O)N[C@@H]1COc1nccc2cc(C(N)=O)c(OC)cc12` [ZIMLOVISERTIB], the % of inhibition in assay [19] (at 0.01 µM) is -0.4%; in assay [19] (at 0.04 µM), -0.5%; in assay [19] (at 0.2 µM), -5.2%; in assay [19] (at 1 µM), 3%; in [19] (at 5 µM), 6.3%.

As for `CN(C(=O)c1cnn2cccnc12)c1cc2c(cc1N1CCOCC1)C(=O)N(C[C@@H](F)C(C)(C)O)C2`, the dTM was 0.5 K in assay [20] and 1.5 K in assay [21].
